Test results from US11225480B2, “Malic enzyme inhibitors” (SUN PHARMA ADVANCED RESEARCH COMPANY LTD, priority 2019, dated 2022).

Experiments:
Format in all cases: biochemical
[1] = target: T1, human ME1 enzyme (Homo sapiens, UniProt P48163); test: ME1 inhibition assay (diaphorase/resazurin coupled fluorescence); conditions: 10 μM compound concentration; read-out: Malic Enzyme 1 % inhibition (10 μM)
T1 sequence (P48163 1-572): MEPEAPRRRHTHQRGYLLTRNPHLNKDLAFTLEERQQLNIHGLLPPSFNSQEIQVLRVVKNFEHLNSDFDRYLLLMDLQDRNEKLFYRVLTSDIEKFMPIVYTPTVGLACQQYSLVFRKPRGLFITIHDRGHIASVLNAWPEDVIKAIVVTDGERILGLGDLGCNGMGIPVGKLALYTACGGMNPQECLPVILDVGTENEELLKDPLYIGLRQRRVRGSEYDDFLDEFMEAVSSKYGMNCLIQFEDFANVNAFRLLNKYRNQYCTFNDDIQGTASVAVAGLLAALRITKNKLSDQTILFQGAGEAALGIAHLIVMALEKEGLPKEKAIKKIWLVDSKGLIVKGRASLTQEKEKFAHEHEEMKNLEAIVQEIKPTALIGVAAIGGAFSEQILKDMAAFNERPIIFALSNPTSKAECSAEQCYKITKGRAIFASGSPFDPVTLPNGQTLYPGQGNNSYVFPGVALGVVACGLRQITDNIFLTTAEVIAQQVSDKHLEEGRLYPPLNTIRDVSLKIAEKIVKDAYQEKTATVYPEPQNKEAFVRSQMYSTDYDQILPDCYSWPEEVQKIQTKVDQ
Method: (§1) ME1 catalyzes the oxidative decarboxylation of malate to pyruvate with conversion of the co-factor β-NADP+ to β-NADPH. In the fluorescence assay, a coupled reaction is set up where in an enzyme, Diaphorase, utilizes NADPH generated by ME1, to convert the dye resazurin to a fluorescent molecule resorufin. Resorufin has a characteristic fluorescence with excitation/emission at 540/600 nm (SLAS Discov., 2017 April 1:2472555217706649).
The enzyme activity inhibition assay is set up in a 200 μL final reaction volume in a 96-well plate. As per the experimental design, 2 μL of the compounds at 100× the desired concentration (10 μM) in DMSO were added to the respective wells with 178 μL of assay buffer (50 mM Tris-HCl pH 7.5, 10 mM MnCl2, 2 mM L-malate, 10 μM Resazurin and 0.01 mg/ml Diapharose). The 96-well plate was incubated on a plate shaker at room temperature for 15 minutes protected from light. The well contents were gently mixed by adding 10 μL of 20 nM human ME1 enzyme to the wells and the plate was incubated on a shaker at room temperature for 5 minutes protected from light. Suitable ‘enzyme only’ and ‘no enzyme’ controls were included in the experiment. The enzymatic reaction was started by adding 10 μL of 0.3 mM D-NADP+. The reaction was gently mixed and the plate was initially left on a shaker at room temperature for −7 minutes protected from light. Later, the plate was incubated without shaking at room temperature for 2 hours. At the end of 2 hours, the fluorescence of the wells was measured at excitation 540 nm and emission 600 nm. The % enzyme activity of the compounds is obtained by normalizing the data with enzyme only (100%) and no enzyme controls (0%) using GraphPad Prism software 7.04.

[2] = target: human ME2 enzyme (Homo sapiens, UniProt P23368); test: ME2 inhibition assay (diaphorase/resazurin coupled fluorescence); conditions: 10 μM compound concentration; read-out: Malic Enzyme 2 % inhibition (10 μM)
Method: as §1, with “ME2” for “ME1”, “β-NAD+” for “β-NADP+”, “β-NADH.” for “β-NADPH.”, “NADH” for “NADPH”, “ME2,” for “ME1,”
The enzyme activity inhibition assay is set up in a 200 μL final reaction volume in a 96-well plate. As per the experimental design, 2 μL of the compounds at 100× the desired concentration (10 μM) in DMSO were added to the respective wells with 178 μL of assay buffer (50 mM Tris-HCl pH 7.5, 10 mM MnCl2, 7 mM L-malate, 50 μM Resazurin and 0.025 mg/ml Diapharose). The 96-well plate was incubated on a plate shaker at room temperature for 15 minutes protected from light. The well contents were gently mixed by adding 10 μL of 60 nM human ME2 enzyme to the wells and the plate was incubated on a shaker at room temperature for 5 minutes protected from light. Suitable ‘enzyme only’ and ‘no enzyme’ controls were included in the experiment. The enzymatic reaction was started by adding 10 μL of 2 mM β-NAD+. The reaction was gently mixed and the plate was initially left on a shaker at room temperature for −7 minutes protected from light. Later, the plate was incubated without shaking at room temperature for 2 hours. At the end of 2 hours, the fluorescence of the wells was measured at excitation 540 nm and emission 600 nm. The % enzyme activity of the compounds is obtained by normalizing the data with enzyme only (100%) and no enzyme controls (0%) using GraphPad Prism software 7.04.

[3] = target: T2, human ME3 enzyme (Homo sapiens, UniProt Q16798); test: ME3 inhibition assay (diaphorase/resazurin coupled fluorescence); conditions: 10 μM compound concentration; read-out: Malic Enzyme 3 % inhibition (10 μM)
T2 sequence (Q16798 1-604): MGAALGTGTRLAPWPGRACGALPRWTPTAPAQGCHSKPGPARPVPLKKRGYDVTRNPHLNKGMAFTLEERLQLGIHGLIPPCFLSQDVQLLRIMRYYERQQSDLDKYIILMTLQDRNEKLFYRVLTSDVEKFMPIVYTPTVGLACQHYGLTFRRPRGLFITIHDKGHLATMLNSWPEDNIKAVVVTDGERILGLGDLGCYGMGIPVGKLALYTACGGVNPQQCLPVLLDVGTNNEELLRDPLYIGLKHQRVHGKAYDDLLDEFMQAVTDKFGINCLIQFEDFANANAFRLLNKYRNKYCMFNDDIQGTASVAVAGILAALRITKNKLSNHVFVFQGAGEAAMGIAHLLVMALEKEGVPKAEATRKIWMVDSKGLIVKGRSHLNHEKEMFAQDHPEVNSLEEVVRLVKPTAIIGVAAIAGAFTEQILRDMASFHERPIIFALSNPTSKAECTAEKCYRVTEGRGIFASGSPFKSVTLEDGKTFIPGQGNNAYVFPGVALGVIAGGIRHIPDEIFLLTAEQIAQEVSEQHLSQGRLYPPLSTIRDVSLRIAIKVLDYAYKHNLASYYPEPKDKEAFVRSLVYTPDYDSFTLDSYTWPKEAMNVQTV
Method: ME3 catalyzes the oxidative decarboxylation of malate to pyruvate with conversion of the co-factor β-NADP+ to NADPH. In the fluorescence assay, a coupled reaction is set up wherein an enzyme, Diaphorase, utilizes NADPH generated by ME3, to convert the dye resazurin to a fluorescent molecule resorufin.
The enzyme activity inhibition assay is set up in a 200 μL final reaction volume in a 96-well plate. As per the experimental design, 2 μL of the test compounds at 100× the desired concentration (10 μM) in DMSO were added to the respective wells with 178 μL of assay buffer (50 mM Tris-HCl pH 7.5, 10 mM MnCl2, 3 mM L-malate, 50 μM Resazurin and 0.025 mg/ml Diapharose). The 96-well plate was incubated on a plate shaker at room temperature for 15 minutes protected from light. The well contents were gently mixed by adding 10 μL of 20 nM human ME3 enzyme to the wells and the plate was incubated on a shaker at room temperature for 5 minutes protected from light. Suitable enzyme only and no enzyme controls were included in the experiment. The enzyme reaction was started by adding 10 μL of 1 mM D-NADP+. The reaction was gently mixed and the plate was initially left on a shaker at room temperature for ˜7 minutes protected from light. Later, the plate was incubated without shaking at room temperature for 3 hours. At the end of 3 hours, the fluorescence of the wells was measured at excitation 540 nm and emission 600 nm.

Chain of human ME2 enzyme (P23368 19-584): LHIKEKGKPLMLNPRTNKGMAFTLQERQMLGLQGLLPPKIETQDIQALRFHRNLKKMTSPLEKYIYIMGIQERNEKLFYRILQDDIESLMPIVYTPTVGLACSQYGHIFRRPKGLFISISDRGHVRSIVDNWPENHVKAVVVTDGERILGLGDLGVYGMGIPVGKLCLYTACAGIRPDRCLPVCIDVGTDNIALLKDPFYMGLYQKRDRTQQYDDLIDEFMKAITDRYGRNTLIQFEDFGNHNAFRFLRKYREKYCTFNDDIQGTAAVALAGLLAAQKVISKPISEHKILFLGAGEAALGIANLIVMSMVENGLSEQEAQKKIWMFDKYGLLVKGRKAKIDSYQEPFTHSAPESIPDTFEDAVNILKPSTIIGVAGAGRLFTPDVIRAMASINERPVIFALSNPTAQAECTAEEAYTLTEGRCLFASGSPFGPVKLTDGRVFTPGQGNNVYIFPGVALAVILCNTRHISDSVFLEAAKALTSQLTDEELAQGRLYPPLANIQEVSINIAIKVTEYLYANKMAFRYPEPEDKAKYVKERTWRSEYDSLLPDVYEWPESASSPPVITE

Row | Structure (SMILES) | inhibition at 10 µM [1] | inhibition at 10 µM [2] | inhibition at 10 µM [3]
1 | O=C([C@@H]1C[C@H]1c1ccccc1)N1CCN(c2ccc(O)cn2)CC1 (stereo in doubt) [I.133, [4-(5-hydroxypyridin-2-yl)-piperazin-1-yl]-((1R,2R)-2-phenylcyclopropyl)-methanone] | > 90% | > 90% | > 90%
2 | O=C(Cc1ccccc1)N1CCN(c2ccc(O)cc2)CC1 [I.1, 1-[4-(4-hydroxyphenyl)piperazin-1-yl]-2-phenylethanone] | > 90% | > 90% | > 90%
3 | O=C(c1c[nH]c2ccccc12)N1CCN(c2ccc(O)cc2)CC1 [I.2] | > 90% | > 90% | > 90%
4 | COc1cc(CC(=O)N2CCN(c3ccc(O)cc3)CC2)cc(OC)c1OC [I.3, 1-[4-(4-Hydroxy-phenyl)-piperazin-1-yl]-2-(3,4,5-trimethoxy-phenyl)-ethanone] | > 90% |  | > 90%
5 | O=C(Cc1ccc(O)cc1)N1CCN(c2ccc(O)cc2)CC1 [I.4, 2-(4-Hydroxy-phenyl)-1-[4-(4-hydroxy-phenyl)-piperazin-1-yl]-ethanone] | > 90% |  | > 90%
6 | COCCOc1ccc(CC(=O)N2CCN(c3ccc(O)cc3)CC2)cc1 [I.5, 1-[4-(4-Hydroxy-phenyl)-piperazin-1-yl]-2-[4-(2-methoxy-ethoxy)-phenyl]-ethanone] | > 90% | > 90% | > 90%
7 | O=C(Cc1ccccc1)N1CCN(c2ccc(O)cn2)CC1 [I.6, 1-[4-(5-Hydroxy-pyridin-2-yl)-piperazin-1-yl]-2-phenyl-ethanone] | > 90% | > 90% | > 90%
8 | O=C(c1c2ccccc2nc2ccccc12)N1CCN(c2ccc(O)cc2)CC1 [I.9, Acridin-9-yl-[4-(4-hydroxy-phenyl)-piperazin-1-yl]-methanone] | > 90% | > 90% | > 90%
9 | O=C(Cc1ccccc1)N1CCN(c2ccc(O)cc2F)CC1 [I.11, 1-[4-(2-Fluoro-4-hydroxy-phenyl)-piperazin-1-yl]-2-phenyl-ethanone] | > 90% | 70 to 89% | > 90%
10 | O=C(c1c2ccccc2cc2ccccc12)N1CCN(c2ccc(O)cc2)CC1 [I.21, Anthracen-9-yl-[4-(4-hydroxy-phenyl)-piperazin-1-yl]-methanone] | > 90% | > 90% | > 90%
11 | O=C(Cc1ccc(C(F)(F)F)cc1)N1CCN(c2ccc(O)cc2)CC1 [I.28, 1-[4-(4-Hydroxy-phenyl)-piperazin-1-yl]-2-(4-trifluoro-methyl-phenyl)-ethanone] | > 90% |  | > 90%
12 | O=C(O)c1cccc(-c2cc(C(=O)N3CCN(c4ccc(O)cc4)CC3)ccn2)c1 [I.39, 3-[4-[4-(4-Hydroxy-phenyl)-piperazine-1-carbonyl]-2-pyridyl]-benzoic acid] | > 90% | > 90% | > 90%
13 | O=C(C=C(c1ccccc1)c1ccccc1)N1CCN(c2ccc(O)cc2)CC1 [I.40, 1-[4-(4-hydroxyphenyl)piperazin-1-yl]-3,3-diphenylprop-2-en-1-one] | > 90% | > 90% | > 90%
14 | O=C(O)c1cccc(-c2cc(C(=O)N3CCN(c4ccc(O)cc4)CC3)cc(N3CCOCC3)n2)c1 [I.41, 3-[4-[4-(4-Hydroxy-phenyl)-piperazine-1-carbonyl]-6-morpholino-2-pyridyl]-benzoic acid] | > 90% | > 90% | > 90%
15 | O=C(O)c1ccc(-c2cc(C(=O)N3CCN(c4ccc(O)cc4)CC3)cc(N3CCOCC3)n2)cc1 [I.42, 4-[4-[4-(4-Hydroxy-phenyl)-piperazine-1-carbonyl]-6-morpholino-2-pyridyl]-benzoic acid] | > 90% | > 90% | > 90%
16 | O=C(c1c[nH]c2ccccc12)N1CCN(c2ccc(O)cn2)CC1 [I.43, [4-(5-Hydroxy-pyridin-2-yl)-piperazin-1-yl]-(1H-indol-3-yl)-methanone] | > 90% | 50 to 69% | > 90%
17 | O=C(c1c2ccccc2nc2ccccc12)N1CCN(c2ccc(O)cn2)CC1 [I.44, Acridin-9-yl-[4-(5-hydroxy-pyridin-2-yl)-piperazin-1-yl]-methanone] | > 90% | 50 to 69% | > 90%
18 | O=C(CCc1ccccc1)N1CCN(c2ccc(O)cn2)CC1 [I.45, 1-[4-(5-hydroxy-pyridin-2-yl)-piperazin-1-yl]-3-phenyl-propan-1-one] | > 90% | 70 to 89% | > 90%
